For the assay, the target named is T1, AR protein in VCaP cells (Homo sapiens, UniProt P10275).
T1 construct: endogenous in cells; host or cells: VCaP cells
T1 sequence (P10275 1-920): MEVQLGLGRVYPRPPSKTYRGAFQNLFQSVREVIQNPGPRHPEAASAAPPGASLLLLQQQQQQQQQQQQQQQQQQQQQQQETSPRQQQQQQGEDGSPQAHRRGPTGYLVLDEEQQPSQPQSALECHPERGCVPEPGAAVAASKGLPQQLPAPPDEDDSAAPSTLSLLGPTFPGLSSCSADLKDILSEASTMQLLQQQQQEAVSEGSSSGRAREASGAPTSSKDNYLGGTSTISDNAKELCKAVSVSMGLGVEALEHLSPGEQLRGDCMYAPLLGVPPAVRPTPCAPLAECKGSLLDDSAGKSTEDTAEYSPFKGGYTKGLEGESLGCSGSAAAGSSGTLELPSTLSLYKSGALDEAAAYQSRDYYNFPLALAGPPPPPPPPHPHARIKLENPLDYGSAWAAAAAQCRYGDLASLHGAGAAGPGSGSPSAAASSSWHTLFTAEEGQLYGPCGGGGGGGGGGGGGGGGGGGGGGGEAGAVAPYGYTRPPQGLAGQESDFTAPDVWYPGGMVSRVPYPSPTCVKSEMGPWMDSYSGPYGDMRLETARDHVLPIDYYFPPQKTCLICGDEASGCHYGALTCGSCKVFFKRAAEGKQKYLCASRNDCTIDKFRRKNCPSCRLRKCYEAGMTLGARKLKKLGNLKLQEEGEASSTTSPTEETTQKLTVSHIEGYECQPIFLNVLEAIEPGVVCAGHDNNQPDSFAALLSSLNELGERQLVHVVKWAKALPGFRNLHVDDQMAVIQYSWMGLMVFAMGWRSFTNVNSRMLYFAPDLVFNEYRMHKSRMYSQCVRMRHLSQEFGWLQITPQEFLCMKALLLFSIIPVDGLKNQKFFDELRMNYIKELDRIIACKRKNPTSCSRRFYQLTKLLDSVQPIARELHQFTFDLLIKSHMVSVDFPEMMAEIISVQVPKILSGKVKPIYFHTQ
In words: VCAP AR Degradation Assay. Particulars: 24 h, AR ELISA; for DC50: concentration at 50% of DMSO control (50% AR degradation); for Y: lowest measured AR level normalized to DMSO control. Format: cell-based. The protocol: VCAP AR Degradation Assay. Test compounds were pre-dispensed into a Corning CellBind 96-well clear bottom plate (Cat #3300) using an acoustic dispenser to make a 10-point concentration series at 1:3 dilution for each compound. The final top concentration of each compound was 5 μM. DMSO at a final concentration of 0.1% was used as a control. VCaP cells cultured in DMEM with 8% fetal bovine serum (FBS) were seeded at 50K cells per well in a 200 μL volume into the compound plate and incubated at 37° C. in a CO2 incubator for 24 h. The medium was carefully removed from the cells and the plate was placed on ice. One hundred μL of ice-cold 1× cell lysis buffer from Cell Signaling Technologies (Cat #9803) was added to each well of the cells and the plate was incubated at 4° C. on a shaker for 1 h. Fifteen μL of cell lysate was used for AR ELISA detection using a PathScan Total Sandwich AR ELISA kit (Cell Signaling Technology, Cat #12580). AR levels in compound-treated wells were normalized to that of DMSO control and expressed as percent of control (PoC) (y). A Four Parameter Logistic Model (Sigmoidal Dose-Response Model) was used to determine the compound's DC50, and EC50, using the following equation: y=(A+((B−A)/(1+((C/x)^D)))) • A=YMin (lowest AR level normalized to DMSO control in response to compound treatment, as determined by curve fit) • B=YMax (maximum AR level as determined by curve fit) • C=EC50 • D=Hill Slope • x=compound concentration • EC50=the concentration of compound when y=(YMax−YMin)/2 • DC50=the concentration of the compound when y=50% of DMSO control (50% AR degradation) • y=AR protein level normalized to DMSO control
The lowest measured AR level normalized to DMSO control in response to compound treatment, termed Y value, was used to characterize the compound-mediated AR degradation efficiency.
(An ELISA detects its analyte on a solid surface through an enzyme-linked reagent.)

Structures can show the parent of a compound that is named as a salt. Bounds are passed on as bounds.

Drawing on patent publication US12103920B2, “Cereblon binding compounds, compositions thereof, and methods of treatment therewith” (Celgene Corporation, priority 2020, dated 2024), this text covers DC50 and Y for twelve molecules.

The DC50 is the concentration giving 50% degradation.

As for `CC1(C)C(=O)N(c2ccc(C#N)c(C(F)(F)F)c2)C(=S)N1[C@H]1CC[C@H](OCCC2CCN(CC(=O)Nc3cccc(NC4CCC(=O)NC4=O)c3)CC2(F)F)CC1` (stereo partly drawn) [Cmpd 44, 2-(4-(2-(((trans)-4-(3-(4-Cyano-3-(trifluoromethyl)phenyl)-5,5-dimethyl-4-oxo-2-thioxoimidazolidin-1-yl)cyclohexyl)oxy)ethyl)-3,3-difluoropiperidin-1-yl)-N-(3-((2,6-dioxopiperidin-3-yl)amino)phenyl)acetamide], the DC50 was 5 to 10 nM and the Y entry is “* (0<Y≤15%)”.
As to `C[C@@H]1CN(CCC[C@H]2CC[C@H](N3C(=S)N(c4ccc(C#N)c(C(F)(F)F)c4)C(=O)C3(C)C)CC2)C[C@H](C)N1CC(=O)Nc1cc(NC2CCC(=O)NC2=O)ccc1F` (stereo partly drawn) [Cmpd 39, 2-((2R,6S)-4-(3-((trans)-4-(3-(4-Cyano-3-(trifluoromethyl)phenyl)-5,5-dimethyl-4-oxo-2-thioxoimidazolidin-1-yl)cyclohexyl)propyl)-2,6-dimethylpiperazin-1-yl)-N-(5-((2,6-dioxopiperidin-3-yl)amino)-2-fluorophenyl)acetamide], the DC50 was 10 to 100 nM and the Y entry is given as “*** (25%<Y<50%)”.
On to `CC1(C)C(=O)N(c2cnc(C#N)c(C(F)(F)F)c2)C(=S)N1[C@H]1CC[C@H](CCCN2CCN(CC(=O)Nc3cccc(NC4CCC(=O)NC4=O)c3)[C@@H](C(F)(F)F)C2)CC1` (stereo partly drawn) [Cmpd 25, 2-((R)-4-(3-((trans)-4-(3-(6-Cyano-5-(trifluoromethyl)pyridin-3-yl)-5,5-dimethyl-4-oxo-2-thioxoimidazolidin-1-yl)cyclohexyl)propyl)-2-(trifluoromethyl)piperazin-1-yl)-N-(3-((2,6-dioxopiperidin-3-yl)amino)phenyl)acetamide], for which the DC50 lay in the range of 5 to 10 nM and the Y entry is reported as “* (0<Y≤15%)”.
For the molecule `CC1(C)C(=O)N(c2ccc(C#N)c(C(F)(F)F)c2)C(=S)N1[C@H]1CC[C@H](OCCN2CCN(CC(=O)Nc3cc(Cl)cc(NC4CCC(=O)NC4=O)c3)[C@@H](C(F)(F)F)C2)CC1` (stereo partly drawn) [Cmpd 27, N-(3-Chloro-5-((2,6-dioxopiperidin-3-yl)amino)phenyl)-2-((R)-4-(2-(((trans)-4-(3-(4-cyano-3-(trifluoromethyl)phenyl)-5,5-dimethyl-4-oxo-2-thioxoimidazolidin-1-yl)cyclohexyl)oxy)ethyl)-2-(trifluoromethyl)piperazin-1-yl)acetamide], the DC50 fell in the range of 10 to 100 nM and the Y result was “* (0<Y≤15%)”.
Turning to `CC1(C)C(=O)N(c2cnc(C#N)c(C(F)(F)F)c2)C(=S)N1[C@H]1CC[C@H](OCCC2CCN(CC(=O)Nc3cccc(NC4CCC(=O)NC4=O)c3)CC2(F)F)CC1` (stereo partly drawn) [Cmpd 46, 2-(4-(2-(((trans)-4-(3-(6-Cyano-5-(trifluoromethyl)pyridin-3-yl)-5,5-dimethyl-4-oxo-2-thioxoimidazolidin-1-yl)cyclohexyl)oxy)ethyl)-3,3-difluoropiperidin-1-yl)-N-(3-((2,6-dioxopiperidin-3-yl)amino)phenyl)acetamide hydrochloride], the DC50 was not above 5 nM and the Y entry is recorded as “* (0<Y≤15%)”.
`CC1(C)C(=O)N(c2cnc(C#N)c(C(F)(F)F)c2)C(=S)N1[C@H]1CC[C@H](OCCN2CCN(CC(=O)Nc3cccc(N[C@H]4CCC(=O)NC4=O)c3)[C@@H](C(F)(F)F)C2)CC1` [Cmpd 41, 2-((R)-4-(2-(((trans)-4-(3-(6-Cyano-5-(trifluoromethyl)pyridin-3-yl)-5,5-dimethyl-4-oxo-2-thioxoimidazolidin-1-yl)cyclohexyl)oxy)ethyl)-2-(trifluoromethyl)piperazin-1-yl)-N-(3-(((S)-2,6-dioxopiperidin-3-yl)amino)phenyl)acetamide hydrochloride]: the DC50 is not above 5 nM and the Y result is “* (0<Y≤15%)”.
In the case of `C[C@@H]1CN(CCCO[C@H]2CC[C@H](N3C(=S)N(c4ccc(C#N)c(C(F)(F)F)c4)C(=O)C3(C)C)CC2)C[C@H](C)N1CC(=O)Nc1cccc(NC2CCC(=O)NC2=O)c1` (stereo partly drawn) [Cmpd 12, 2-((2R,6S)-4-(3-((trans-4-(3-(4-Cyano-3-(trifluoromethyl)phenyl)-5,5-dimethyl-4-oxo-2-thioxoimidazolidin-1-yl)cyclohexyl)oxy)propyl)-2,6-dimethylpiperazin-1-yl)-N-(3-((2,6-dioxopiperidin-3-yl)amino)phenyl)acetamide hydrochloride], the DC50 is 5 to 10 nM and the Y entry is “*** (25%<Y<50%)”.
With `C[C@@H]1CN(CCO[C@H]2CC[C@H](N3C(=S)N(c4cnc(C#N)c(C(F)(F)F)c4)C(=O)C3(C)C)CC2)C[C@H](C)N1CC(=O)Nc1cccc(N[C@@H]2CCC(=O)NC2=O)c1` [Cmpd 48, 2-((2R,6S)-4-(2-(((trans)-4-(3-(6-Cyano-5-(trifluoromethyl)pyridin-3-yl)-5,5-dimethyl-4-oxo-2-thioxoimidazolidin-1-yl)cyclohexyl)oxy)ethyl)-2,6-dimethylpiperazin-1-yl)-N-(3-(((R)-2,6-dioxopiperidin-3-yl)amino)phenyl)acetamide], the DC50 was less than 1000 nM and the Y result was “* (0<Y≤15%)”.
For `C[C@@H]1C[C@H](CCO[C@H]2CC[C@H](N3C(=S)N(c4ccc(C#N)c(C(F)(F)F)c4)C(=O)C3(C)C)CC2)C[C@H](C)N1CC(=O)Nc1cccc(NC2CCC(=O)NC2=O)c1` (stereo partly drawn) [Cmpd 16, 2-((2R,4r,6S)-4-(2-((trans-4-(3-(4-Cyano-3-(trifluoromethyl)phenyl)-5,5-dimethyl-4-oxo-2-thioxoimidazolidin-1-yl)cyclohexyl)oxy)ethyl)-2,6-dimethylpiperidin-1-yl)-N-(3-((2,6-dioxopiperidin-3-yl)amino)phenyl)acetamide hydrochloride], the DC50 was 5 to 10 nM and the Y entry is on record as “* (0<Y≤15%)”.
In the same order, the values of `C[C@@H]1CN(CCC[C@H]2CC[C@H](N3C(=S)N(c4cnc(C#N)c(Cl)c4)C(=O)C3(C)C)CC2)C[C@H](C)N1CC(=O)Nc1cccc(NC2CCC(=O)NC2=O)c1` (stereo partly drawn) [Cmpd 13, 2-((2R,6S)-4-(3-(trans-4-(3-(5-Chloro-6-cyanopyridin-3-yl)-5,5-dimethyl-4-oxo-2-thioxoimidazolidin-1-yl)cyclohexyl)propyl)-2,6-dimethylpiperazin-1-yl)-N-(3-((2,6-dioxopiperidin-3-yl)amino)phenyl)acetamide hydrochloride] are 5 to 10 nM and “*** (25%<Y<50%)”.
In the same order, the values of `C[C@@H]1CN(CCO[C@H]2CC[C@H](N3C(=S)N(c4ccc(C#N)c(S(F)(F)(F)(F)F)c4)C(=O)C3(C)C)CC2)C[C@H](C)N1CC(=O)Nc1cccc(NC2CCC(=O)NC2=O)c1` (stereo partly drawn) [Cmpd 7, 2-((2R,6S)-4-(2-((trans-4-(3-(4-Cyano-3-(pentafluoro-λ^6-sulfaneyl)phenyl)-5,5-dimethyl-4-oxo-2-thioxoimidazolidin-1-yl)cyclohexyl)oxy)ethyl)-2,6-dimethylpiperazin-1-yl)-N-(3-((2,6-dioxopiperidin-3-yl)amino)phenyl)acetamide hydrochloride] are 10 to 100 nM and “*** (25%<Y<50%)”.
Regarding `C[C@@H]1CN(CCO[C@H]2CC[C@H](N3C(=S)N(c4cnc(C#N)c(Cl)c4)C(=O)C3(C)C)CC2)C[C@H](C)N1CC(=O)Nc1cccc(NC2CCC(=O)NC2=O)c1` (stereo partly drawn) [Cmpd 8, hydrochloride], the DC50 lay in the range of 5 to 10 nM and the Y entry was “*** (25%<Y<50%)”.
